Assay results: ChEMBL document CHEMBL1129111, “Neuroprotective (+) 3S, 4S cannabinoids with modified 5-side chain” (Bioorg Med Chem Lett, 1996)

Tests used:
Rattus norvegicus [1] = organism: Rattus norvegicus; assay: Compound was tested for neuronal cell toxicity in cortical neuron cell cultures extracted from fetal rat brains at concentration of 20 uM; assay type: functional, Brain
Glutamate NMDA receptor = assay: Compound was tested for its ability to displace [3H]- MK-801 binding to NMDA receptor in rat forebrain membranes.; assay type: cell membranes
Rattus norvegicus [2] = organism: Rattus norvegicus; assay: Compound was tested for the protection of neurons against NMDA toxicity at concentration of 10 uM; assay type: functional
Rattus norvegicus [3] = organism: Rattus norvegicus; assay: Compound was tested for neuronal cell toxicity in cortical neuron cell cultures extracted from fetal rat brains at concentration of 10 uM; assay type: functional, Brain
[4] = biological target: Glutamate NMDA receptor (Rattus norvegicus) (UniProt P35439+Q00959+Q00960+Q00961+Q62645+Q8VHN2+Q9R1M7); assay: Compound was tested for its ability to inhibit [3H]- MK-801 binding to NMDA receptor in rat forebrain membranes at concentration of 100 uM; assay type: cell membranes; conditions: Membrane

Compound | Morbidity (Rattus norvegicus [1]) | IC50 (Glutamate NMDA receptor) | Protection (Rattus norvegicus [2]) | Morbidity (Rattus norvegicus [3]) | inhibition [4]
CCCC(C)(C)c1cc(O)c2c(c1)OC(C)(C)C1CC=C(CO)C[C@H]21 (some centres undefined) | 0% | 30 µM | 36% | 0% | 80%
CCCCCCC(C)(C)c1cc(O)c2c(c1)OC(C)(C)C1CC=C(CO)C[C@H]21 (some centres undefined) | – | 10 µM | 63% | 25% | 90%
CC(C)(C)c1cc(O)c2c(c1)OC(C)(C)C1CC=C(CO)C[C@H]21 (some centres undefined) | 36% | 30 µM | 24% | 15% | 83%
